Literature values in patent publication US12285459B2, “Saposin-A derived peptides and uses thereof” (CHILDREN'S MEDICAL CENTER CORPORATION, priority 2011, dated 2025).

System: VEGF
Details: cited from earlier work

CN(C)c1ccc(/C=C2\C(=O)Nc3ccccc32)cc1 [SU 4312]
vessel formation: blocked
